Data: patent US9611295B2, “Treatment of IL-17 mediated disease by blocking SEFIR-SEFIR interactions” (THE CLEVELAND CLINIC FOUNDATION, priority 2011, dated 2017)

Key:
[1] = test system: IL-17-dependent signaling; experiment: IL-17-dependent signaling in MEFs by Western blotting (pIκB, pJNK, pERK, pp38 MAPK); format: cell-based, mouse
Description: FIG. 4 provides data showing that a cell-permeable CC′ loop decoy peptide disrupts the interaction between Act1 and IL-17RA and inhibits IL-17R and IL-25R signaling. FIG. 4A provides sequences of Antennapedia homeodomain (Antp) (SEQ ID NO: 11)and decoy peptides (SEQ ID NOS 23-25 and 17, respectively, in order of appearance) with the Antp sequence underlined. FIG. 4B provides flow cytometry results based on experiments in which MEFs expressing IL-17RB were incubated for 2 or 24 hours with the indicated FITC-tagged peptides (200 μM) and were then analyzed by flow cytometry. […] The percentages of FITC-positive cells in the treated samples are shown. […] FIG. 4D provides Western blot results of experiments in which MEFs expressing IL-17RB were incubated with the indicated peptides (200 μM) for 24 hours after which they were treated with IL-17 or IL-25 and then analyzed by Western blotting with the indicated antibodies. […] The abundances of Cxcl1 and Il13 mRNAs were then measured by real-time RT-PCR. […]
Decoy peptides are based on surface-exposed regions of the primary sequence of a protein to mimic a putative interaction interface. […] These decoy peptides were also tagged at their C-termini with fluorescein isothiocyanate (FITC) to enable their cell-penetrating efficiency to be evaluated by flow cytometric sanalysis. […]

[2] = test system: IL-25-induced pulmonary inflammation; experiment: IL-25-induced pulmonary inflammation in BALB/c mice; format: in vivo, mouse
Description: FIG. 5 provides bar graph and staining data showing that a cell-permeable CC′ loop decoy peptide inhibits IL-17- and IL-25-induced pulmonary inflammation. Wild-type (WT) female BALB/c mice (n=4 mice per group) were pretreated with DMSO, scrambled peptide, or the CC′ loop decoy peptide for 4 hours, after which they were administered saline, IL-17, or IL-25 intranasally. Mice were sacrificed and analyzed 16 hours after injection with IL-17 or 4 days after injection with IL-25. […] All experiments were performed three times. *P<0.05.
It has been shown that Act1 plays an essential role in IL-17- and IL-25-mediated pulmonary inflammation. Thus, the inventors examined whether the Act1 SEFIR domain CC′ loop decoy peptide ameliorated IL-17- and IL-25-induced airway inflammation in vivo. BALB/c mice were pretreated with scrambled peptide or with the Act1 SEFIR domain CC′ loop decoy peptide for 4 hours, after which we injected the mice intranasally with IL-17 or IL-25. […] Consistently, IL-17-induced lung and airway recruitment of granulocytes was reduced in mice pretreated with the CC′ loop decoy peptide compared to that in mice pretreated with the scrambled peptide (FIG. 5C). The lower grade of pulmonary inflammation in the mice treated with the CC′ loop decoy peptide correlated with the decreased IL-17-dependent expression of genes encoding MCP-1 and GM-CSF in the lung tissues (FIG. 5D). […] IL-25-induced lung and airway recruitment of granulocytes, predominantly eosinophils, as well as mucin production, as determined by Periodic acid-Schiff (PAS) staining, were reduced in mice pretreated with the CC′ loop decoy peptide compared to that in mice pretreated with the scrambled peptide (FIG. 5G). The decreased pulmonary inflammation in […] correlated with decreased expression of genes encoding the TH2-type cytokines IL-5 and IL-13 in the lungs (FIG. 5H).
Intranasal injection of mice with IL-17 and IL-25: Wild-type BALB/c female mice were pretreated with dimethyl sulfoxide (DMSO, the solvent for peptides), scrambled peptide, or the CC′ loop decoy peptide for 4 hours, after which they underwent intranasal administration of saline, IL-17 (4 μg/mouse), or IL-25 (4 μg/mouse). For IL-25-treated mice, decoy peptides were administrated daily through intranasal injection after pretreatment. Mice were anesthetized with isoflurane and sacrificed. BAL fluid was collected 16 hours after injection with IL-17 or 4 days after injection with IL-25. A total of 0.7 ml of HL-1 medium (BioWhittaker®) was used to obtain BAL fluid through trachea with a blunt needle and a 1-ml syringe. Cytospin slide preparations were obtained with a Shandon CytoSpin III Cytocentrifuge (Shandon/Thermo Scientific). Differential leukocyte counts were obtained on cytospin slide preparations after incubation with Diff Quik Giemsa stain. Cytokines in the BAL were analyzed by MultipleX plate (Invitrogen®). H&E and PAS staining were performed on lung tissues after fixation in 10% neutral-buffered formalin and paraffin embedding to detect pulmonary inflammation and for assessment of goblet cell metaplasia and mucin accumulation in airway epithelial cells.

DRQIKIWFQNRRMKWKKLDEDEHGLHTKY [CC′ loop decoy peptide]
IL-17-dependent signaling (pIκB, pJNK, pERK, pp38 MAPK) ([1]; MEFs expressing IL-17RB, peptides 200 μM, 24 hours): partly attenuated
dose and time dependence of inhibition of IL-17-dependent signaling and gene expression ([1]; data not shown): dose-and time-dependent manner
dose dependence of inhibition of IL-25-induced pulmonary inflammation ([2]; data not shown): dose-dependent manner
IL-5 in BAL ([2]; intranasal IL-25, 4 days): substantially attenuated
IL-13 in BAL ([2]; intranasal IL-25, 4 days): substantially attenuated
IL-25-induced eosinophilia (eosinophils in BAL) ([2]; intranasal IL-25, 4 days, vs scrambled peptide, listed as Act1 SEFIR domain CC′ loop decoy peptide): substantially attenuated
IL-25-induced eosinophilia (eosinophils in BAL) ([2]; intranasal IL-25, 4 days, vs scrambled peptide, listed as CC′ decoy peptide): reduced accumulation
IL-25-induced lung and airway recruitment of granulocytes, predominantly eosinophils (H&E) ([2]; vs scrambled peptide): reduced
mucin production (PAS staining) ([2]; vs scrambled peptide): reduced
